Where two headings read alike, the source gives them in different places.
Tests used:
MCF7 = assay: Cell proliferation assay (CellTiter-Glo, 96 h), MCF7; assay type: cell-based; details: Homo sapiens
Method in brief: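 Growth inhibition in percent was based on luminescence differences between treated and control samples after subtracting baseline readings taken at t=0. Cells had been incubated with compound for 96 hours at 37° C. following overnight plating.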

[1] = test system: malonyl-CoA in a tumour (human MCF-7 breast cancer cells); assay: Mode-of-action experiment: intratumour malonyl-CoA in MCF-7 tumours after oral administration; assay type: in vivo, female nude mice (NMRI-nude (nu/nu)); details: Mus musculus, MCF7, po; after 7 h, 10 mg/kg, vs Vehicle
Experimental: Mode-of-Action Experiment
Prior to the determination of the activity in the MCF-7 model, some of the test substances were examined in a “mode of action” experiment. The principle of this experiment is that short-term application of a test substance capable of inhibiting ACC1 and/or ACC2 in a living organism after oral administration reduces malonyl-CoA in a tumour. To this end, in the experiment 2 million human MCF-7 breast cancer cells were injected subcutaneously into female nude mice (NMRI-nude (nu/nu) mice, Taconic M&B A/S, 1 day beforehand administration of a pellet for the release of oestrogen over a period of at least 60 days). Once the tumour extended to an area of about 60-70 mm^2, the test substance was administered orally over a period of 1-3 days, and at defined points in time the intratumour content of malonyl-CoA was then determined and compared to the vehicle control. The method is described in Anal Chem 2008 Aug. 1; 80(15):5736-42. Epub 2008 Jul. 9.).

[2] = molecular target: human ACC2 (acetyl-coenzyme A carboxylase 2) (Homo sapiens, UniProt O00763); assay: Human ACC2 enzyme assay, Assay B2 (ADP-Glo);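 also: human ACC2 activity read as ADP product, detected by luciferase glow luminescence after residual ATP removal, enzyme near 2 ng/µl in linear range, detection steps at 22 °C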
human ACC2 (acetyl-coenzyme A carboxylase 2), sequence (O00763 27-2458 limits assumed): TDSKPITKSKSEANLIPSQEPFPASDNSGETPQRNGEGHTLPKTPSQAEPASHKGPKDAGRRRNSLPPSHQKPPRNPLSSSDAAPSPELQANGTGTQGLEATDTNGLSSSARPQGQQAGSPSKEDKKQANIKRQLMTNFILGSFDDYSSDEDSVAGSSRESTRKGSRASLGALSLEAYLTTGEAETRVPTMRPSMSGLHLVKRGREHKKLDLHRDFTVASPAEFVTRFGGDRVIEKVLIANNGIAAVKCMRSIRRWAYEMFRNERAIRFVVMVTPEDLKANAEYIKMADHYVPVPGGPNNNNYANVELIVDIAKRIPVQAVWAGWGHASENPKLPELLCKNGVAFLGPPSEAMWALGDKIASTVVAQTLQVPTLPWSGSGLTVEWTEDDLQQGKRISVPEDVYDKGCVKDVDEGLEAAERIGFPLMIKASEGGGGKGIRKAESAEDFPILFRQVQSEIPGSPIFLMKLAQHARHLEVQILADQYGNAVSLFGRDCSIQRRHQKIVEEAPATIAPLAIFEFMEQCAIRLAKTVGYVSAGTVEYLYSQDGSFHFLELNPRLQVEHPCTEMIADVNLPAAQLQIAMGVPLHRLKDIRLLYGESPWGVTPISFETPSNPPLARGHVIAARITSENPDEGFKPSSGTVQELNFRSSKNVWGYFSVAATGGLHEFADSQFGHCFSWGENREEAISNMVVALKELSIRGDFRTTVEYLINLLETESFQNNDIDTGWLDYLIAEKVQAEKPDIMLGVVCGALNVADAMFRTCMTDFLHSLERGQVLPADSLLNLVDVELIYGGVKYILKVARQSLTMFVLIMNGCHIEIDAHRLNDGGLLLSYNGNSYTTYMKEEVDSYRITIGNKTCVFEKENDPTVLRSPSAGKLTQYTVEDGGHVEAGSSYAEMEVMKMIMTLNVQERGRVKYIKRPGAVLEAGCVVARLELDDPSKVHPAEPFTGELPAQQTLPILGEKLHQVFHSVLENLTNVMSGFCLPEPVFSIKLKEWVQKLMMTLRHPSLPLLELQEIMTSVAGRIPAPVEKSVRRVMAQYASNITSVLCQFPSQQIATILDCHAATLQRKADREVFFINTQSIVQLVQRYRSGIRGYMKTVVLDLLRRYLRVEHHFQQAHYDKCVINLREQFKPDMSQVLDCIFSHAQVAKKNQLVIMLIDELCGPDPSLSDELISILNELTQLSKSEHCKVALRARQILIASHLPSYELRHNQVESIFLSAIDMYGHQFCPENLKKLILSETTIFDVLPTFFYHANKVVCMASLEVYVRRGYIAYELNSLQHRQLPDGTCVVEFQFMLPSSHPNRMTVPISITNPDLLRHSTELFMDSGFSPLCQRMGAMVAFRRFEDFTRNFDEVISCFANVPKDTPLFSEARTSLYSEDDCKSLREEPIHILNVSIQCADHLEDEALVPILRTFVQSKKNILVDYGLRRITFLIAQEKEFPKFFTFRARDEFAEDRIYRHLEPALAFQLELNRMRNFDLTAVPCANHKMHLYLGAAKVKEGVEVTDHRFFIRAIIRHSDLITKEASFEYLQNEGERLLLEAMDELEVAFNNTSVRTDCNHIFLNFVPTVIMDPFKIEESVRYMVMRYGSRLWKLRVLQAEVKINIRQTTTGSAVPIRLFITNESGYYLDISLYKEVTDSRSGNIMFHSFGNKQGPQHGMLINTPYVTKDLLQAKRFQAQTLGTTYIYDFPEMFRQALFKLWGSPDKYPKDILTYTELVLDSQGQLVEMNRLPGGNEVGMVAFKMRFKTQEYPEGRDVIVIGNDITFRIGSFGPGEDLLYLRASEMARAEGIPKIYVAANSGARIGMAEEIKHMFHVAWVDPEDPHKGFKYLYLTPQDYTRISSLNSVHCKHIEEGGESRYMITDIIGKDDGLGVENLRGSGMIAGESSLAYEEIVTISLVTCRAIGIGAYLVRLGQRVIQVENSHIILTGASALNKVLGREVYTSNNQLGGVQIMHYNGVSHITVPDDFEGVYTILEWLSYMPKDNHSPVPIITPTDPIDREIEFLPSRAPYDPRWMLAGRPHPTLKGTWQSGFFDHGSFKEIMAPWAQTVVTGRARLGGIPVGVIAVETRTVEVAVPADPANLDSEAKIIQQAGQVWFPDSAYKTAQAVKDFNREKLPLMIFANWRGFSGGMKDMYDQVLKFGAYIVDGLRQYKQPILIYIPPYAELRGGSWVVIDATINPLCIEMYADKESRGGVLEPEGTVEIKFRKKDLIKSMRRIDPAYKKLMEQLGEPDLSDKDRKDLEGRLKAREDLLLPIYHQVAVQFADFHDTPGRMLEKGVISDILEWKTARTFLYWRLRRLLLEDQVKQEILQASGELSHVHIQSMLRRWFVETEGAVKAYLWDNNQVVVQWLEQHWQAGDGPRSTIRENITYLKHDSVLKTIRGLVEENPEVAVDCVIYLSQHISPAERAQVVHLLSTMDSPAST

[3] = molecular target: T1, human ACC1 (acetyl-coenzyme A carboxylase alpha transcript variant 1) (Homo sapiens, UniProt Q13085); assay: Human ACC1 enzyme assay, Assay B1 (ADP-Glo); assay type: biochemical
T1 construct: FLAG (C); made in house; host or cells: baculovirus-infected insect cells (Hi5)

[4] = molecular target: acetyl-CoA carboxylase 2 (ACC2) (Homo sapiens, UniProt O00763); assay: Human ACC2 enzyme assay, Assay A2 (HTRF ADP immunoassay);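 also: ADP generated by ACC2 quantified via competitive time-resolved FRET between europium cryptate anti-ADP antibody and d2-tagged ADP, enzyme kept in linear range near 0.6 ng/µl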
acetyl-CoA carboxylase 2 (ACC2), sequence (O00763 39-2458 limits assumed): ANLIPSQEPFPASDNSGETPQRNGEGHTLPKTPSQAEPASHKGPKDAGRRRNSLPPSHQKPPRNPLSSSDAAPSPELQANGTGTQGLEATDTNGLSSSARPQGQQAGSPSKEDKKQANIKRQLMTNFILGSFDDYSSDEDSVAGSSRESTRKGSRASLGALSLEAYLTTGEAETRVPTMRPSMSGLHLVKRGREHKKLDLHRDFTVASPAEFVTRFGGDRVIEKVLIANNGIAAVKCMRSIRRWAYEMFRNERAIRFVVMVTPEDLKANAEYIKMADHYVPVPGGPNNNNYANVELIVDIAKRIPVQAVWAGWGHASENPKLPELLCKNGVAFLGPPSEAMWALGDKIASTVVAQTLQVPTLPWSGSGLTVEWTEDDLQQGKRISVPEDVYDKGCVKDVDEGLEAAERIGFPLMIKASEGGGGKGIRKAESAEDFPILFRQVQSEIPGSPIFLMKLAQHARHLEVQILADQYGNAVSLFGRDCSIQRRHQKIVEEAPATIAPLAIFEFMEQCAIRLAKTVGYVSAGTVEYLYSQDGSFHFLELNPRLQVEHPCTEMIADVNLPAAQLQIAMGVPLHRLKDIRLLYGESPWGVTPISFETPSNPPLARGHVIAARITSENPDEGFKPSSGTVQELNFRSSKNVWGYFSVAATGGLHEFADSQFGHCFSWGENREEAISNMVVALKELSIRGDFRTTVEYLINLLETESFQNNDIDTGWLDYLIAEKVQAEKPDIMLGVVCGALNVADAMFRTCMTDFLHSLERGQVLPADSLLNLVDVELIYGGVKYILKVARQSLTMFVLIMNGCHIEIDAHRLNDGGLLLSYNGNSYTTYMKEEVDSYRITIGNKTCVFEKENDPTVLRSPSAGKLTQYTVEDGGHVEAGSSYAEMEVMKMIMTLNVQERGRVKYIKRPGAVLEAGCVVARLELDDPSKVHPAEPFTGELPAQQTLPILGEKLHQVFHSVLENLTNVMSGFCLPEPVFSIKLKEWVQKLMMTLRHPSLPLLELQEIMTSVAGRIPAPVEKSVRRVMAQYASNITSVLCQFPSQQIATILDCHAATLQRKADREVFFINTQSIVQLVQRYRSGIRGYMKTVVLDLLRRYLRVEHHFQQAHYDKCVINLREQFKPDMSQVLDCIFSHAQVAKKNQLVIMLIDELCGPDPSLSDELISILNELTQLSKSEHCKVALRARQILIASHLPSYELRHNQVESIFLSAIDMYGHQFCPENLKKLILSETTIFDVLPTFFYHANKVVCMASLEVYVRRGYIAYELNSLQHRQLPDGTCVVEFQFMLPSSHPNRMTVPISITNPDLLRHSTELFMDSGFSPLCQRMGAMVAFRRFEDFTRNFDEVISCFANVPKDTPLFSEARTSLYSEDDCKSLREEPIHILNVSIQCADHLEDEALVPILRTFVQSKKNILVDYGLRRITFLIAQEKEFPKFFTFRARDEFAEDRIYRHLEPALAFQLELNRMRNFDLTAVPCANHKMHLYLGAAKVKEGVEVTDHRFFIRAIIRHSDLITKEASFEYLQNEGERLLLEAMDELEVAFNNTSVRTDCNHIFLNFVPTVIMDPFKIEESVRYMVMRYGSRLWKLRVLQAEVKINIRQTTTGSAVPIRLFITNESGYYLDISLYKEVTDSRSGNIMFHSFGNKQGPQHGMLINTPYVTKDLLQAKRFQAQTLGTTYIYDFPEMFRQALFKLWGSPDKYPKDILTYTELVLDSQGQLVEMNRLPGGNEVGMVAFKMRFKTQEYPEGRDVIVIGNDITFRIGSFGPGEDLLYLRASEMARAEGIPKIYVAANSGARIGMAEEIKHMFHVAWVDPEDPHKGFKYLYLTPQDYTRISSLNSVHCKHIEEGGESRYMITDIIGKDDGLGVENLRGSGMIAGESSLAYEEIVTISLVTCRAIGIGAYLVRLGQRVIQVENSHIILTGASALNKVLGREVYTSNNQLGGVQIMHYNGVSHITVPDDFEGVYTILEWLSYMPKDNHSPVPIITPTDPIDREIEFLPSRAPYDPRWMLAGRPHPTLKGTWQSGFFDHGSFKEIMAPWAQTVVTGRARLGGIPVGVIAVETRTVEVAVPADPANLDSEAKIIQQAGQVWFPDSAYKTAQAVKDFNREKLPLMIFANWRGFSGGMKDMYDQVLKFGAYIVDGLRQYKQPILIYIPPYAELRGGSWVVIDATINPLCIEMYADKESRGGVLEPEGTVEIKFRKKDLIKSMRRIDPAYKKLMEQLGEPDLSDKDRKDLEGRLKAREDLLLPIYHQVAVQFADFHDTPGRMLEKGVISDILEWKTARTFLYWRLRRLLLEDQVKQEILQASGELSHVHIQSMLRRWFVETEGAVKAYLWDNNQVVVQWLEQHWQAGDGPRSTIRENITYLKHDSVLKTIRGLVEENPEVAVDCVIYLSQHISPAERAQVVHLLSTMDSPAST
Experimental: The inhibitory activity of the substances of this invention with regard to acetyl-CoA carboxylase 2 (ACC2) was measured using the ACC2 assay described in the paragraphs below. The basic principle of the assay is the measurement of adenosine diphosphate (ADP), which is formed as a by-product, by means of an HTRF®-based competitive immunoassay (HTRF=Homogeneous Time Resolved Fluorescence).
The amount of complex of d2-labelled ADP and europium cryptate-labelled anti-ADP antibody was then determined by measuring the resonance energy transfer of europium cryptate to d2.

recombinant human ACC1 = recombinant human ACC1 (Homo sapiens, UniProt Q13085); assay: Human ACC1 enzyme assay, Assay A1 (HTRF ADP immunoassay);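 also: ADP generated by the enzyme quantified via competitive time-resolved FRET, read as europium cryptate to d2 energy transfer after 1 h at 22 °C with labelled ADP tracer and anti-ADP antibody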
Experimental: The inhibitory activity of the substances of this invention with regard to acetyl-CoA carboxylase 1 (ACC1) was measured using the ACC1 assay described in the paragraphs below. The basic principle of the assay is the measurement of adenosine diphosphate (ADP), which is formed as a by-product, by means of an HTRF®-based competitive immunoassay (HTRF=Homogeneous Time Resolved Fluorescence).
Typical concentrations were in the range of 2.5 ng/μl.
The amount of complex between d2-labelled ADP and europium cryptate-labelled anti-ADP antibody was then determined by measuring the resonance energy transfer from the europium cryptate to d2.

[5] = MCF7, Table 7, 96-hour incubation
[6] = Assay B1, read-out: ACC 1 (=B1) IC50

| Structure (SMILES) | IC50 (MCF7; [5]) [nM] | inhibition in vivo at 10 mg/kg [1] [%] | IC50 [2] [nM] | IC50 [3, 6] [nM] | IC50 [4] [nM] | IC50 (recombinant human ACC1) [nM] | IC50 [3] [nM] | IC50 (MCF7; MCF7 cells) [nM] | IC50 ([3]; Assay B1, ADP-Glo, read-out: ACC 1 (=B1) IC50) [nM] |
| --- | --- | --- | --- | --- | --- | --- | --- | --- | --- |
| CO[C@H]1CC[C@]2(CC1)NC(=O)C(c1cc(-c3ccc(Cl)cc3)ccc1C)=C2O [1-2, (5s,8s)-3-(4′-chloro-4-methylbiphenyl-3-yl)-4-hydroxy-8-methoxy-1-azaspiro[4.5]dec-3-en-2-one] | 57 | 96 | 822 | – | – | – | – | – | – |
| Cc1ccc(-c2ccc(Cl)cc2)cc1C1=C(O)C2(CCCOC2)NC1=O (centres unmarked) [1-5, 3-(4′-chloro-4-methylbiphenyl-3-yl)-4-hydroxy-7-oxa-1-azaspiro[4.5]dec-3-en-2-one] | 230 | 82 | 11000 | 246 | – | – | – | – | – |
| Cc1ccc(-c2ccc(Cl)cc2)cc1C1=C(O)[C@]2(CC[C@H](C)CC2)NC1=O [1-76, 3-(4′-chloro-4-methylbiphenyl-3-yl)-4-hydroxy-8-methyl-1-azaspiro[4.5]dec-3-en-2-one] | – | 96 | 432 | 163 | – | – | – | – | – |
| CC1(C)CCC2(CC1)NC(=O)C(c1cc(-c3ccc(Cl)cc3)ccc1Cl)=C2O [1-138, 3-(4,4′-Dichlorobiphenyl-3-yl)-4-hydroxy-8,8-dimethyl-1-azaspiro[4.5]dec-3-en-2-one] | 54 | – | 2190 | – | 633 | 262 | 172 | – | – |
| CC1CCC2(CC1)NC(=O)C(c1cc(-c3ccc(Cl)cc3)ccc1Cl)=C2O (centres unmarked) [1-139, 3-(4,4′-Dichlorobiphenyl-3-yl)-4-hydroxy-8-methyl-1-azaspiro[4.5]dec-3-en-2-one] | 70 | – | 4550 | – | 605 | 280 | 153 | – | – |
| CC(C)[C@H]1CC[C@]2(CC1)NC(=O)C(c1cc(-c3ccc(Cl)cc3)ccc1Cl)=C2O [1-141, (5s,8s)-3-(4,4′-Dichlorobiphenyl-3-yl)-4-hydroxy-8-isopropyl-1-azaspiro[4.5]dec-3-en-2-one] | 79 | – | 1380 | – | 625 | 247 | 161 | – | – |
| CO[C@H]1CC[C@]2(CC1)NC(=O)C(c1cc(-c3ccc(Cl)cc3F)ccc1C)=C2O [1-142, (5s,8s)-3-(4′-Chloro-2′-fluoro-4-methylbiphenyl-3-yl)-4-hydroxy-8-methoxy-1-azaspiro[4.5]dec-3-en-2-one] | 106 | – | 957 | – | 551 | 337 | 704 | – | – |
| CO[C@H]1CC[C@]2(CC1)NC(=O)C(c1cc(-c3ccc(Cl)cc3Cl)ccc1C)=C2O [1-143, (5s,8s)-3-(2′,4′-Dichloro-4-methylbiphenyl-3-yl)-4-hydroxy-8-methoxy-1-azaspiro[4.5]dec-3-en-2-one] | 111 | – | 2150 | – | 1020 | 282 | 161 | – | – |
| CCO[C@H]1CC[C@]2(CC1)NC(=O)C(c1cc(-c3ccc(Cl)cc3)ccc1C)=C2O [1-146, (5s,8s)-3-(4′-Chloro-4 methylbiphenyl-3-yl)-8-ethoxy-4-hydroxy-1-azaspiro[4.5]dec-3-en-2-one] | 47 | – | 679 | 115 | 455 | 197 | – | – | – |
| CCO[C@H]1CC[C@@]2(CC1)NC(=O)C(c1cc(-c3ccc(Cl)cc3)ccc1C)=C2O [1-147, (5r,8r)-3-(4′-Chloro-4 methylbiphenyl-3-yl)-8-ethoxy-4-hydroxy-1-azaspiro[4.5]dec-3-en-2-one] | 174 | – | 2030 | 150 | 1250 | 195 | – | – | – |
| CCCOC1CCC2(CC1)OC(=O)C(c1cc(-c3ccc(Cl)cc3)c(C)cc1C)=C2O (centres unmarked) [2-47, 3-(4′-chloro-4,6-dimethylbiphenyl-3-yl)-4-hydroxy-8-propoxy-1-oxaspiro[4.5]dec-3-en-2-one] | – | – | 389 | – | 453 | 592 | – | 302 | 402 |

— patent US20130040935A1, “CYCLIC KETO-ENOLS FOR THERAPY” (BAYER INTELLECTUAL PROPERTY GMBH, priority 2010, published 2013)
